Reference: patent US4508663A, “Process for preparing thiosulfenamide derivatives of N-phosphonomethylglycinonitriles” (Monsanto Company, priority 1983, dated 1985)

What was measured:
Assay in all cases: post-emergence herbicidal activity, greenhouse
Format in all cases: in vivo
[1] = tested on: Barnyardgrass
Excerpt: (§1) A good grade of top soil is placed in aluminum pans having holes in the bottom and compacted to a depth of 0.95 to 1.27 cm. from the top of the pan. A predetermined number of seeds of each of several dicotyledonous and monocotyledonous annual plant species and/or vegetative propagules for the perennial plant species are placed on the soil and pressed into the soil surface. The seeds and/or vegetative propagules are covered with soil and leveled. The pans are then placed on a sand bench in the greenhouse and watered from below as needed. After the plants reach the desired age (two to three weeks), each pan except for the control pans is removed individually to a spraying chamber and sprayed by means of an atomizer operating at a positive air pressure of approximately 1.46 kg/cm^2 absolute. The atomizer contains 6 ml. of a solution or suspension of the chemical. In that 6 ml., is an amount of a cyclohexanone emulsifying agent mixture to give a spray solution or suspension which contains about 0.4% by weight of the emulsifier. The spray solution or suspension contains a sufficient amount of the candidate chemical in order to give application rates corresponding to those set forth in the tables. The spray solution is prepared by taking an aliquot of a 1.0% by weight stock solution or suspension of the candidate chemical in an organic solvent such as acetone or tetrahydrofuran or in water. The emulsifying agent employed is a mixture comprising 35 weight percent butylamine dodecylbenzene sulfonate and 65 weight percent of a tall oil ethylene oxide condensate having about 11 moles of ethylene oxide per mole of tall oil. The pans are returned to the greenhouse and watered as before and the injury to the plants as compared to the control is observed at approximately two and four weeks as indicated in the tables under WAT and the results recorded. In some instances, the two-week observations are omitted.
(§2) The post-emergence herbicidal activity index used in Table I is as follows: […]

[2] = tested on: Cocklebur
Excerpt: as §1, §2

[3] = tested on: Crabgrass; conditions: Table II, 2 WAT
Excerpt: as §1, §2

[4] = tested on: Downy Brome
Excerpt: as §1, §2

[5] = tested on: Hemp Sesbania; conditions: Table II, 2 WAT
Excerpt: as §1, §2

[6] = tested on: Johnsongrass; conditions: Table I, 4 WAT
Excerpt: as §1, §2

[7] = tested on: Lambsquarters
Excerpt: as §1, §2

[8] = tested on: Morningglory
Excerpt: as §1, §2

[9] = tested on: Panicum Spp; conditions: Table II, 2 WAT
Excerpt: as §1, §2

[10] = tested on: Quackgrass; conditions: Table I, 4 WAT
Excerpt: as §1, §2

[11] = tested on: Rice; conditions: Table II, 2 WAT
Excerpt: as §1, §2

[12] = tested on: Smartweed
Excerpt: as §1, §2

[13] = tested on: Sorghum; conditions: Table II, 2 WAT
Excerpt: as §1, §2

[14] = tested on: Soybean; conditions: Table II, 2 WAT
Excerpt: as §1, §2

[15] = tested on: Sugar Beet; conditions: Table II, 2 WAT
Excerpt: as §1, §2

[16] = tested on: Velvetleaf
Excerpt: as §1, §2

[17] = tested on: Wheat; conditions: Table II, 2 WAT
Excerpt: as §1, §2

[18] = tested on: Wild Buckwheat; conditions: Table II, 2 WAT
Excerpt: as §1, §2

[19] = tested on: Yellow Nutsedge; conditions: Table I, 4 WAT
Excerpt: as §1, §2

N#CCN(CP(=O)(Oc1ccccc1)Oc1ccccc1)SSc1ccc(Cl)cc1 [XI]
post-emergence herbicidal activity index ([1]; Table I, 4 WAT, 5.6 kg/h): 0 (0-24% control)
post-emergence herbicidal activity index ([1]; Table I, 4 WAT, 11.2 kg/h): 3 (75-99% control)
post-emergence herbicidal activity index ([1]; Table II, 2 WAT, 1.12 kg/h): 0 (0-24% control)
post-emergence herbicidal activity index ([1]; Table II, 2 WAT, 5.6 kg/h): 1 (25-49% control)
post-emergence herbicidal activity index ([2]; Table I, 4 WAT, 5.6 kg/h): 0 (0-24% control)
post-emergence herbicidal activity index ([2]; Table I, 4 WAT, 11.2 kg/h): 3 (75-99% control)
post-emergence herbicidal activity index ([2]; Table II, 2 WAT, 1.12 kg/h): 0 (0-24% control)
post-emergence herbicidal activity index ([2]; Table II, 2 WAT, 5.6 kg/h): 3 (75-99% control)
post-emergence herbicidal activity index ([3]; 1.12 kg/h): 0 (0-24% control)
post-emergence herbicidal activity index ([3]; 5.6 kg/h): 3 (75-99% control)
post-emergence herbicidal activity index ([4]; Table I, 4 WAT, 5.6 kg/h): 0 (0-24% control)
post-emergence herbicidal activity index ([4]; Table I, 4 WAT, 11.2 kg/h): 1 (25-49% control)
post-emergence herbicidal activity index ([4]; Table II, 2 WAT, 1.12 kg/h): 0 (0-24% control)
post-emergence herbicidal activity index ([4]; Table II, 2 WAT, 5.6 kg/h): 1 (25-49% control)
post-emergence herbicidal activity index ([5]; 1.12 kg/h): 0 (0-24% control)
post-emergence herbicidal activity index ([5]; 5.6 kg/h): 1 (25-49% control)
post-emergence herbicidal activity index ([6]; 5.6 kg/h): 0 (0-24% control)
post-emergence herbicidal activity index ([6]; 11.2 kg/h): 2 (50-74% control)
post-emergence herbicidal activity index ([7]; Table I, 4 WAT, 5.6 kg/h): 0 (0-24% control)
post-emergence herbicidal activity index ([7]; Table I, 4 WAT, 11.2 kg/h): 4 (100% control)
post-emergence herbicidal activity index ([7]; Table II, 2 WAT, 1.12 kg/h): 0 (0-24% control)
post-emergence herbicidal activity index ([7]; Table II, 2 WAT, 5.6 kg/h): 3 (75-99% control)
post-emergence herbicidal activity index ([8]; Table I, 4 WAT, 5.6 kg/h): 0 (0-24% control)
post-emergence herbicidal activity index ([8]; Table I, 4 WAT, 11.2 kg/h): 1 (25-49% control)
post-emergence herbicidal activity index ([8]; Table II, 2 WAT, 1.12 kg/h): 0 (0-24% control)
post-emergence herbicidal activity index ([8]; Table II, 2 WAT, 5.6 kg/h): 1 (25-49% control)
post-emergence herbicidal activity index ([9]; 1.12 kg/h): 0 (0-24% control)
post-emergence herbicidal activity index ([9]; 5.6 kg/h): 1 (25-49% control)
post-emergence herbicidal activity index ([10]; 5.6 kg/h): 0 (0-24% control)
post-emergence herbicidal activity index ([10]; 11.2 kg/h): 2 (50-74% control)
post-emergence herbicidal activity index ([11]; 1.12 kg/h): 0 (0-24% control)
post-emergence herbicidal activity index ([11]; 5.6 kg/h): 1 (25-49% control)
post-emergence herbicidal activity index ([12]; Table I, 4 WAT, 5.6 kg/h): 0 (0-24% control)
post-emergence herbicidal activity index ([12]; Table I, 4 WAT, 11.2 kg/h): 2 (50-74% control)
post-emergence herbicidal activity index ([12]; Table II, 2 WAT, 1.12 kg/h): 0 (0-24% control)
post-emergence herbicidal activity index ([12]; Table II, 2 WAT, 5.6 kg/h): 1 (25-49% control)
post-emergence herbicidal activity index ([13]; 1.12 kg/h): 0 (0-24% control)
post-emergence herbicidal activity index ([13]; 5.6 kg/h): 1 (25-49% control)
post-emergence herbicidal activity index ([14]; 1.12 kg/h): 0 (0-24% control)
post-emergence herbicidal activity index ([14]; 5.6 kg/h): 1 (25-49% control)
post-emergence herbicidal activity index ([15]; 1.12 kg/h): 1 (25-49% control)
post-emergence herbicidal activity index ([15]; 5.6 kg/h): 3 (75-99% control)
post-emergence herbicidal activity index ([16]; Table I, 4 WAT, 5.6 kg/h): 0 (0-24% control)
post-emergence herbicidal activity index ([16]; Table I, 4 WAT, 11.2 kg/h): 2 (50-74% control)
post-emergence herbicidal activity index ([16]; Table II, 2 WAT, 1.12 kg/h): 0 (0-24% control)
post-emergence herbicidal activity index ([16]; Table II, 2 WAT, 5.6 kg/h): 3 (75-99% control)
post-emergence herbicidal activity index ([17]; 1.12 kg/h): 0 (0-24% control)
post-emergence herbicidal activity index ([17]; 5.6 kg/h): 2 (50-74% control)
post-emergence herbicidal activity index ([18]; 1.12 kg/h): 0 (0-24% control)
post-emergence herbicidal activity index ([18]; 5.6 kg/h): 3 (75-99% control)
post-emergence herbicidal activity index ([19]; 5.6 kg/h): 0 (0-24% control)
post-emergence herbicidal activity index ([19]; 11.2 kg/h): 1 (25-49% control)
